This note sets out measurements from patent US7371763B2, “Inhibition of raf kinase using quinolyl, isoquinolyl or pyridyl ureas” (Bayer Pharmaceuticals Corporation, priority 2001, dated 2008).

As usually defined, the melting point is the temperature, or range, at which the solid turns liquid. With `CC(C)(C)c1ccnc(NC(=O)Nc2ccc(Oc3ccc(Cl)cc3)cc2)c1` [Entry 8, N-(4-tert-Butylpyridyl)-N′-(4-(4-chlorophenoxy)phenyl) urea], the melting point fell in the range of 198 to 199 °C.
